The target of the experiment is T1, recombinant human cGAS enzyme (hcGAS-ΔN, residues 147–522) (Homo sapiens, UniProt Q8N884).
T1 construct: N-terminally truncated human cGAS (hcGAS-ΔN, residues 147–522); 6xHis-SUMO (N, cleaved yes); made in house; host or cells: Escherichia coli BL21 (DE3)
Description: RNA-based fluorescent biosensor assay of cGAS activity (2',3'-cGAMP formation), in vitro screening. Type of experiment: biochemical. The following applies: for Remaining activity (%), Fig. 1a source data / remaining activity at 20 µM: 20 μM, replicate values; for remaining activity at 20 µM: read-out: Remaining activity (%), Fig. 1a source data; for inhibition at 20 µM / Inhibition %: peptides screened at 20 μM, Supplementary Table 1 / Fig. S5b; for inhibition at 20 µM: read-out: Inhibition %. An excerpt:
To screen direct cGAS inhibitors targeting protein-DNA interface from our developed focused library of macrocyclic peptides, we applied an RNA-based fluorescent biosensor for 2’,3’-cGAMP to detect cGAS activity in vitro (Supplementary Fig. 1a)[49]. The formation of 2’,3’-cGAMP from ATP and GTP was catalyzed by recombinant human cGAS enzyme (hcGAS-ΔN, residues 147–522, Supplementary Fig. 1b) in the presence of ISD (interferon stimulatory DNA, a 45-bp dsDNA), which was readily quantified by the RNA-based fluorescent biosensor and was further confirmed by ion exchange chromatography (Supplementary Fig. 1c). […] Subsequently, a total of 90 macrocyclic peptides were screened at a concentration of 20 μM (Fig. 1a and Supplementary Fig. 1e), and 4 hits (XQ2, XQ8, XQ19, and XQ46) were obtained for further testing at a cut-off of 40% inhibition (Supplementary Table 1). To evaluate the inhibitory effect of the hits against cGAS in cells, we employed real-time quantitative PCR (qPCR) to examine mRNA levels of IFNΒ1 in THP1 cells. The reported cGAS inhibitor RU.521 was used as the positive control, and the non-active peptide XQ28 in the screening assay was used as the negative control. […] The inhibition of cGAS by these hits was further confirmed in the reporter cell line THP1-Lucia ISG (Invivogen) that expresses secreted luciferase induced by an IRF3-inducible ISG54 promoter (Fig. 1c). The discrepancy between the inhibitory effect of the hits in protein and cellular assays may be attributed to their different cellular permeability.
The high-throughput screening (HTS) experiments of cGAS activity are based on the method previously described. To initiate the enzyme reaction, ISD was added to the reaction solution (40 mM Tris-HCl, pH 7.5, 100 mM NaCl, 10 mM MgCl2) containing hcGAS-ΔN, ATP (Sangon Biotech, Cat# A600311) and GTP (Sangon Biotech, Cat# A620332) in a total volume of 20 ul with the final concentration of 0.5 μM, 1.5 μM, 1 mM, 1 mM, respectively, and incubated for 2 h at 37 °C. For HTS experiments, compounds were added to the same reaction conditions as described above with the final concentration of 20 μM. Z’ factors were calculated from three replicates in the 384-well plate.

“And” between values parts separate entries of the source, which are not always exact repeats. Equal values may be shown once. Square brackets hold non-standard residues; d marks the D form. Peptide text beside a SMILES is read from it.

As usually defined, the remaining activity is the signal under treatment as a percentage of the control signal. By inhibition is commonly meant the drop in the measured response relative to a control, in per cent.

T1 sequence (Q8N884 147-522, stated change not applied): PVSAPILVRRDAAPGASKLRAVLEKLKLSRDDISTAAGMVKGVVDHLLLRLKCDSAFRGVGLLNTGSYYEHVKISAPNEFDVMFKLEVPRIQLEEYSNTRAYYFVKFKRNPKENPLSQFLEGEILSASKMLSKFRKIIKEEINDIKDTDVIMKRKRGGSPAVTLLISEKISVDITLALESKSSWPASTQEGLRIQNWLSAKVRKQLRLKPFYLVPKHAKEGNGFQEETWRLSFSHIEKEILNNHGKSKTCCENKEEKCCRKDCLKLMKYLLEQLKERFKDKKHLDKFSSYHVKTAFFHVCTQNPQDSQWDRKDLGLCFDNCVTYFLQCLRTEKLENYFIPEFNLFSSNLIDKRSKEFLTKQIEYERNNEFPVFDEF

Regarding `CC(C)C[C@@H]1NC(=O)[C@H](CCCNC(=N)N)NC(=O)[C@H](C(C)C)NC(=O)[C@@H]2CCCN2C(=O)[C@@H](C)NC(=O)[C@H](C)NC(=O)[C@H](CCCNC(=N)N)NC(=O)[C@H](C(C)C)NC(=O)[C@@H]2CCCN2C(=O)[C@@H](Cc2ccccc2)NC1=O` [XQ14, Cyclo (AaPVRLfPVR)] (cyclo(A[dA]PVRL[dF]PVR)), the “Remaining activity (%), Fig. 1a source data” value (“Remaining activity (%)” below) is 96.1851% and 95.3459%; the remaining activity at 20 µM was determined as 96%; the inhibition at 20 µM was found to be 4%. With `CC(C)C[C@@H]1NC(=O)[C@H](CCCNC(=N)N)NC(=O)[C@H](C(C)C)NC(=O)[C@@H]2CCCN2C(=O)[C@@H](Cc2ccccc2)NC(=O)[C@H](CC(C)C)NC(=O)[C@H]([C@@H](C)O)NC(=O)[C@@H]2CCCN2C(=O)[C@@H](Cc2ccccc2)NC(=O)[C@H](CC(=O)O)NC1=O` [XQ63, Cyclo (LDfPTLfPVR)] (cyclo(D[dF]PTL[dF]PVRL)), the inhibition at 20 µM came to 0%. As to Cyclo (LfPTDLfPVR) [XQ90], the Inhibition % stood at 5%. Regarding Cyclo (LwP(T(NMe))DLf(K(Dde))VR) [XQ61], the Inhibition % was found to be 16%.

With `CC(C)C[C@@H]1NC(=O)[C@H](CCCNC(=N)N)NC(=O)[C@H](C(C)C)NC(=O)[C@@H]2CCCN2C(=O)[C@@H](Cc2ccccc2)NC(=O)[C@H](C)NC(=O)[C@H](CCCNC(=N)N)NC(=O)[C@H](C(C)C)NC(=O)[C@H](CC(C)C)NC(=O)[C@@H](Cc2ccccc2)NC1=O` [XQ52, Cyclo (LfLVRAfPVR)] (cyclo(A[dF]PVRL[dF]LVR)), the inhibition at 20 µM amounted to 0%. Still for that read-out and setting: the value for `CC(C)C[C@@H]1NC(=O)[C@H](CC(=O)O)NC(=O)[C@H](C(C)C)NC(=O)[C@@H]2CCCN2C(=O)[C@@H](C)NC(=O)[C@H](C)NC(=O)[C@H](CCCNC(=N)N)NC(=O)[C@H](C(C)C)NC(=O)[C@@H]2CCCN2C(=O)[C@@H](Cc2ccccc2)NC1=O` [XQ78, Cyclo (AaPVDLfPVR)] (cyclo(A[dA]PVDL[dF]PVR)) was 0%. For the compound `CC(C)C[C@@H]1NC(=O)[C@H](CCCNC(=N)N)NC(=O)[C@H](C(C)C)NC(=O)[C@@H]2CCCN2C(=O)[C@@H](Cc2ccccc2)NC(=O)[C@H](CC(C)C)NC(=O)[C@H](CCCNC(=N)N)NC(=O)[C@H](C(C)C)NC(=O)[C@@H]2CCCN2C(=O)[C@@H](C)NC1=O` [XQ1, Cyclo (LaPVRLfPVR)] (cyclo(L[dA]PVRL[dF]PVR)), the “Remaining activity (%)” value is 76.5914% and 76.7702%; the remaining activity at 20 µM was 76.9%; the inhibition at 20 µM is 23%. For the compound `CC(C)C[C@@H]1NC(=O)[C@H](CCCNC(=N)N)NC(=O)[C@H]([C@@H](C)O)NC(=O)[C@@H]2CCCN2C(=O)[C@@H](Cc2ccccc2)NC(=O)[C@H](C)NC(=O)[C@H](CCCNC(=N)N)NC(=O)[C@H]([C@@H](C)O)NC(=O)[C@@H]2CCCN2C(=O)[C@@H](Cc2ccccc2)NC1=O` [XQ37, Cyclo (AfPTRLfPTR)] (cyclo(A[dF]PTRL[dF]PTR)), the “Remaining activity (%)” value was 81.1407% and 81.3464%; the remaining activity at 20 µM was determined as 81%; the inhibition at 20 µM turned out to be 18%. `CC(C)C[C@@H]1NC(=O)[C@H](CC(=O)O)NC(=O)[C@H](C(C)C)NC(=O)[C@@H]2CCCN2C(=O)[C@@H](Cc2ccccc2)NC(=O)[C@H](C)NC(=O)[C@H](CCCNC(=N)N)NC(=O)[C@H](C)NC(=O)[C@@H]2CCCN2C(=O)[C@@H](Cc2ccccc2)NC1=O` [XQ58, Cyclo (AfPVDLfPAR)] (cyclo(ARA[dF]PVDL[dF]P)): the inhibition at 20 µM is 0%. For the compound `CC(C)[C@@H]1NC(=O)[C@@H]2CCCN2C(=O)[C@@H](Cc2ccccc2)NC(=O)[C@H](C)NC(=O)[C@H](CCCNC(=N)N)NC(=O)[C@H](C(C)C)NC(=O)[C@@H]2CCCN2C(=O)[C@@H](Cc2ccccc2)NC(=O)[C@H](C)NC(=O)[C@H](CCCNC(=N)N)NC1=O` [XQ10, Cyclo (AfPVRAfPVR)] (cyclo(A[dF]PVRA[dF]PVR)), the “Remaining activity (%)” value is 103.793% and 104.243%; the remaining activity at 20 µM was 103%; the inhibition at 20 µM worked out at 0%. For the compound Cyclo (Lw(K(Dde))VDLf(K(Dde))VR) [XQ71], the Inhibition % is 0%. As to `CC(C)C[C@@H]1NC(=O)[C@H](C)NC(=O)[C@H](C(C)C)NC(=O)[C@@H]2CCCN2C(=O)[C@@H](CCCNC(=N)N)NC(=O)[C@H](CC(C)C)NC(=O)[C@H](CCCNC(=N)N)NC(=O)[C@H](C(C)C)NC(=O)[C@@H]2CCCN2C(=O)[C@@H](Cc2ccccc2)NC1=O` [XQ55, Cyclo (LrPVALfPVR)] (cyclo(AL[dF]PVRL[dR]PV)), the inhibition at 20 µM was found to be 0%. In the case of `CC(C)C[C@@H]1NC(=O)[C@H](CCCNC(=N)N)NC(=O)[C@H](C(C)C)NC(=O)[C@@H]2CCCN2C(=O)[C@@H](Cc2ccccc2)NC(=O)[C@H](Cc2c[nH]cn2)NC(=O)[C@H](CC(=O)O)NC(=O)[C@H]([C@@H](C)O)NC(=O)[C@@H]2CCCN2C(=O)[C@@H](Cc2ccccc2)NC1=O` [XQ67, Cyclo (LfPTDHfPVR)] (cyclo(DH[dF]PVRL[dF]PT)), the inhibition at 20 µM was found to be 0%. Consider `CC(C)C[C@@H]1NC(=O)[C@H](CCCNC(=N)N)NC(=O)[C@H]([C@@H](C)O)NC(=O)[C@@H]2CCCN2C(=O)[C@@H](Cc2ccccc2)NC(=O)[C@H](C)NC(=O)[C@H](CC(=O)O)NC(=O)[C@H](C)NC(=O)[C@@H]2CCCN2C(=O)[C@@H](Cc2ccccc2)NC1=O` [XQ79, Cyclo (LfPADAfPTR)] (cyclo(ADA[dF]PTRL[dF]P)), for which the inhibition at 20 µM came to 0%. Take `CC(C)C[C@@H]1NC(=O)[C@H](CCCNC(=N)N)NC(=O)[C@H](C(C)C)NC(=O)[C@@H]2CCCN2C(=O)[C@@H](Cc2ccccc2)NC(=O)[C@H](C)NC(=O)[C@H](CCCNC(=N)N)NC(=O)[C@H](C(C)C)NC(=O)[C@@H]2CCCN2C(=O)[C@@H](C)NC1=O` [XQ21, Cyclo (AfPVRLaPVR)] (cyclo(A[dF]PVRL[dA]PVR)): the “Remaining activity (%)” value was 107.409% and 108.531%; the remaining activity at 20 µM worked out at 108%; the inhibition at 20 µM turned out to be 0%. Regarding `CC(C)C[C@@H]1NC(=O)[C@H](CCCNC(=N)N)NC(=O)[C@H]([C@@H](C)O)NC(=O)[C@@H]2CCCN2C(=O)[C@@H](Cc2ccccc2)NC(=O)[C@H](CC(C)C)NC(=O)[C@H](CCCNC(=N)N)NC(=O)[C@H]([C@@H](C)O)NC(=O)[C@@H]2CCCN2C(=O)[C@@H](C)NC1=O` [XQ34, Cyclo (LaPTRLfPTR)] (cyclo(L[dA]PTRL[dF]PTR)), the “Remaining activity (%)” value was 102.306% and 102.914%; the remaining activity at 20 µM stood at 103%; the inhibition at 20 µM came to 0%. Take `CC(C)C[C@@H]1NC(=O)[C@H](CCCNC(=N)N)NC(=O)[C@H](C(C)C)NC(=O)[C@@H]2CCCN2C(=O)[C@@H](C)NC(=O)[C@H](C)NC(=O)[C@H](CCCNC(=N)N)NC(=O)[C@H](C(C)C)NC(=O)[C@@H]2CCCN2C(=O)[C@@H](C)NC1=O` [XQ17, Cyclo (AaPVRLaPVR)] (cyclo(A[dA]PVRL[dA]PVR)): the “Remaining activity (%)” value is 66.7673% and 68.063%; the remaining activity at 20 µM was found to be 67.2%; the inhibition at 20 µM was determined as 32%.

Take `CC(C)C[C@@H]1NC(=O)[C@H](CCCNC(=N)N)NC(=O)[C@H](C(C)C)NC(=O)[C@@H]2CCCN2C(=O)[C@@H](Cc2ccccc2)NC(=O)[C@H](CC(C)C)NC(=O)[C@H](CC(=O)O)NC(=O)[C@H](CCC(N)=O)NC(=O)[C@@H]2CCCN2C(=O)[C@@H](Cc2ccccc2)NC1=O` [XQ68, Cyclo (LfPQDLfPVR)] (cyclo(DL[dF]PVRL[dF]PQ)): the inhibition at 20 µM was 0%. For the compound Cyclo (Lf(Hyp)TDAfPVR) [XQ88], the Inhibition % was 7%.

The values are drawn from publication PMC10545747, “Development of cyclopeptide inhibitors of cGAS targeting protein-DNA interaction and phase separation” (Nature Communications, 2023).
